In patent publication US20100314316A1, “HALOGENATED AMIDES AS BIOCIDES FOR TREATING WATER SYSTEMS CONTAINING REDUCING AGENTS” (priority 2009, published 2010):

Experiments:
Type in all cases: cell-based
field isolated bacteria = test: Resistance of biocide to sulfite deactivation: biocide pretreated with sulfite in paper mill white water before efficacy testing; conditions: for Decrease of efficacy due to sulfite pretreatment (bacterial log10 reduction): 80 ppm sulfite, 4 hrs; for Bacterial log10 reduction after treatment of biocide for 4 hrs: white water about pH 7.5, 37 C
Method: 50 ppm to 80 ppm sulfite is representative of a sulfite level for pulp and paper applications. The same white water sample without sulfite is used as none sulfite comparison and the same whitewater samples containing no biocide and with or without sulfite are used as controls. The water samples are incubated at 37° C. for 5 min and then are inoculated with field isolated bacteria at a concentration of approximately 10^7 CFU/mL. The mixtures are then incubated at 37° C. for 4 hours. After that, the viable bacteria in the mixtures is enumerated using a serial dilution method.

[1] = tested on: bacteria in sulfite-containing white water; test: Biocidal efficacy in presence of sulfite in contaminated paper mill white water (1-96 hours); conditions: for Bacterial log10 reduction at time point after biocide addition: about 80 ppm sulfite; for Duration of effectiveness (>3 log10 killing) compared with DBNPA: sulfite-containing white water
Method: The same contaminated whitewater samples without biocide are used as controls. The mixtures are incubated at 37° C. with shaking (100 RPM) for 96 hrs. At 1 hr, 3 hrs, 24 hrs, 48 hrs, 72 hrs and 96 hrs time points after the biocide addition, the valid bacteria in the mixtures are enumerated using a serial dilution method and the bacterial log10 reduction is calculated by comparing the valid bacteria number of biocide treated water aliquots to that of controls. Starting from 24 hrs after the sampling, the mixtures are reinoculated with field isolated bacteria at about 10^5 CFU/mL and are supplied with additional sulfite to keep an 80 ppm sulfite concentration.

[2] = tested on: bacteria isolated from paper mill white water; test: Biocidal efficacy of seven biocides in artificial white water; conditions: artificial white water pH 8.1, 37 C
Method: Sterile artificial White Water (111 mg of CaCl2, 60 mg of MgSO4, 168 mg of NaHCO3, 140 mg of K2HPO4, 480 mg of NH4Cl, 1.04 mg of FeCl3.6H2O, 1.48 mg of Na2EDTA, 3000 mg of Dextrose, 10 mg of Yeast Extract, in 1 L water, pH 8.1) is contaminated with field isolated bacteria at a concentration of approximately 10^7 CFU/mL. The aliquots of this contaminated water are then treated with eight dosage levels of DBMAL and six other commonly used biocides in paper mill white water application. The same aliquots of the contaminated water without biocide are used as controls. After incubating at 37° C. for 4 hours, the valid bacteria in the aliquots are enumerated using a serial dilution method and the bacterial log10 reduction is calculated by comparing the valid bacteria number of biocide treated water aliquots to that of controls. Table 4 compares the efficacy of the seven biocides, expressed by bacterial log10 reduction.

[3] = 80 ppm sulfite pretreated, 29.7 ppm biocide
[4] = 80 ppm sulfite pretreated, 44.5 ppm biocide
[5] = 80 ppm sulfite pretreated, 66.7 ppm biocide
[6] = 80 ppm sulfite pretreated, 100.0 ppm biocide
[7] = non-sulfite treated, 29.7 ppm biocide
[8] = non-sulfite treated, 44.5 ppm biocide
[9] = non-sulfite treated, 66.7 ppm biocide
[10] = non-sulfite treated, 100.0 ppm biocide
[11] = 25 ppm active, 1 hr, pH 7.6, 37 C
[12] = 25 ppm active, 3 hr, pH 7.6, 37 C
[13] = 25 ppm active, 24 hrs, pH 7.6, 37 C
[14] = 25 ppm active, 48 hrs, reinoculated from 24 hrs
[15] = 25 ppm active, 72 hrs, reinoculated from 24 hrs
[16] = 25 ppm active, 96 hrs, reinoculated from 24 hrs
[17] = 50 ppm active, 1 hr, pH 7.6, 37 C
[18] = 50 ppm active, 3 hr, pH 7.6, 37 C
[19] = 50 ppm active, 24 hrs, pH 7.6, 37 C
[20] = 50 ppm active, 48 hrs, reinoculated from 24 hrs
[21] = 50 ppm active, 72 hrs, reinoculated from 24 hrs
[22] = 50 ppm active, 96 hrs, reinoculated from 24 hrs

SMILES | Decrease of efficacy due to sulfite pretreatment (bacterial log10 reduction) (field isolated bacteria; 29.7 ppm biocide) | Decrease of efficacy due to sulfite pretreatment (bacterial log10 reduction) (field isolated bacteria; 44.5 ppm biocide) | Decrease of efficacy due to sulfite pretreatment (bacterial log10 reduction) (field isolated bacteria; 66.7 ppm biocide) | Bacterial log10 reduction after treatment of biocide for 4 hrs (field isolated bacteria; [3]) [log10] | Bacterial log10 reduction after treatment of biocide for 4 hrs (field isolated bacteria; [4]) [log10] | Bacterial log10 reduction after treatment of biocide for 4 hrs (field isolated bacteria; [5]) [log10] | Bacterial log10 reduction after treatment of biocide for 4 hrs (field isolated bacteria; [6]) [log10] | Decrease of efficacy due to sulfite pretreatment (bacterial log10 reduction) (field isolated bacteria; 100.0 ppm biocide) | Bacterial log10 reduction after treatment of biocide for 4 hrs (field isolated bacteria; [7]) [log10] | Bacterial log10 reduction after treatment of biocide for 4 hrs (field isolated bacteria; [8]) | Bacterial log10 reduction after treatment of biocide for 4 hrs (field isolated bacteria; [9]) | Bacterial log10 reduction after treatment of biocide for 4 hrs (field isolated bacteria; [10]) | Bacterial log10 reduction at time point after biocide addition [1, 11] | Bacterial log10 reduction at time point after biocide addition [1, 12] | Bacterial log10 reduction at time point after biocide addition [1, 13] [log10] | Bacterial log10 reduction at time point after biocide addition [1, 14] [log10] | Bacterial log10 reduction at time point after biocide addition [1, 15] [log10] | Bacterial log10 reduction at time point after biocide addition [1, 16] [log10] | Bacterial log10 reduction at time point after biocide addition [1, 17] | Minimum dosage (ppm, active) required for at least 3 log10 reduction in numbers of bacteria in 4 hours ([2]; approximately 10^7 CFU/mL) [ppm] | also measured
NC(=O)C(Br)(Br)C(N)=O [DBMAL, 2,2-Dibromomalonamide] | 0.7 log10 | 3.3 log10 | 2.7 log10 | 1.0 | 1.0 | 2.3 | 2.3 | 2.4 log10 | 1.7 | 4.3 log10 | 5.0 log10 | 4.7 log10 | 2.5 log10 | 3.2 log10 | 4.2 | 3.7 | 1.5 | 1.2 | >=4.0 log10 | 81.92 | Decrease in efficacy when premixed with 80 ppm sulfite, compared with DBNPA (field isolated bacteria; premixed with 80 ppm sulfite): much smaller; Bacterial log10 reduction at time point after biocide addition [1, 18]: 3.8 log10; Bacterial log10 reduction at time point after biocide addition [1, 19]: >=4.3 log10; Bacterial log10 reduction at time point after biocide addition [1, 20]: 4.3 log10; Bacterial log10 reduction at time point after biocide addition [1, 21]: 4.2 log10; Bacterial log10 reduction at time point after biocide addition [1, 22]: 3.8 log10; Duration of effectiveness (>3 log10 killing) compared with DBNPA ([1]; same active concentration of 25 ppm): one more day; Duration of effectiveness (>3 log10 killing) compared with DBNPA ([1]; same active concentration of 50 ppm): two more days
N#CC(Br)(Br)C(N)=O [DBNPA, 2,2-Dibromo-3-nitrilopropionamide] | >=3.4 log10 | >=4.4 log10 | >=4.4 log10 | 1.3 | 1.3 | 1.3 | 2.3 | >=3.4 log10 | 4.7 | >=5.7 log10 | >=5.7 log10 | >=5.7 log10 | >=4.0 log10 | >=4.0 log10 | 3.3 | 1.5 | 0.3 | 0 | >=4.0 log10 | 128.00 | Bacterial log10 reduction at time point after biocide addition [1, 18]: >=4.0 log10; Bacterial log10 reduction at time point after biocide addition [1, 19]: >=4.3 log10; Bacterial log10 reduction at time point after biocide addition [1, 20]: 4.5 log10; Bacterial log10 reduction at time point after biocide addition [1, 21]: 1.0 log10; Bacterial log10 reduction at time point after biocide addition [1, 22]: 0.7 log10
O=CCCCC=O [Glutaraldehyde] | – | – | – | – | – | – | – | – | – | – | – | – | – | – | – | – | – | – | – | 163.84 | –
NCl [monochloramine] | – | – | – | – | – | – | – | – | – | – | – | – | – | – | – | – | – | – | – | – | Minimum dosage (ppm, active) required for at least 3 log10 reduction in numbers of bacteria in 4 hours ([2]; active expressed as chlorine): 8.00 (chlorine) ppm
CC1(C)C(=O)N(Cl)C(=O)N1Br [BCDMH, 1-Bromo-3-chloro-5,5-dimethylhydantoin] | – | – | – | – | – | – | – | – | – | – | – | – | – | – | – | – | – | – | – | – | Minimum dosage (ppm, active) required for at least 3 log10 reduction in numbers of bacteria in 4 hours ([2]; active ppm measured by available bromine & chlorine (chlorine/bromine)): 71.74 (chlorine/bromine) ppm
